Values of other authors, collected in PMC12042267, “Expanding the Family of Monosubstituted 15-Membered Pyridine-Based Macrocyclic Ligands for Mn(II) Complexation in the Context of MRI” (Inorganic Chemistry, 2025).
Read-outs that look alike come from different tables or passages of the source.

Assays:
[1] = cited from earlier work
[2] = Zn(II), cited from earlier work
[3] = Mn(II) complex, cited from earlier work; for dissociation half-life t1/2: calculated for pH 7.4
[4] = cited from earlier work; remark: listed apart in the source
[5] = Cu(II), cited from earlier work
[6] = Ca(II), cited from earlier work
[7] = cited from earlier work; remark: listed apart in the source
[8] = cited from earlier work; remark: listed apart in the source
[9] = cited from earlier work; for r1p298: 298 K and 0.47 T ref 21; for r1 (relaxivity): 20 MHz, 0.47 T ref 28
[10] = Mn(II) complex, cited from earlier work
[11] = 0.15 NaCl and 2 mM concentration ref 21, 58

## c1cc2nc(c1)CNCCNCCNCCNC2 [15-pyN5]
[1]; 0.1 M NMe4Cl ref 28
  log K1^H: 9.40
  log K2^H: 8.54
  log K3^H: 5.28
[1]; 0.1 NaClO4 ref 40
  log K1^H: 9.43
  log K2^H: 8.80
  log K3^H: 5.28
[1]; 0.1 NaClO4 ref 41
  log K1^H: 9.11
  log K2^H: 8.82
  log K3^H: 5.27
[2]; 0.1 M NMe4Cl ref 28
  log KHML: 2.45
  log KML: 16.27
  log KML(OH): -11.18
[3]; Zn(II) transmetalation ref 28
  k1: 423 M^–1 s^–1
  k2: 1.0 × 10^7 M^–2 s^–1
  k4: 1.7 × 10^4 M^–2 s^–1
[3]; Zn(II) ref 28
  dissociation half-life t1/2: 11.0 h
[4]; Mn(II), 0.1 M NMe4Cl ref 28
  log KML: 10.89
  log KML(OH): -11.52
[4]; Mn(II), 0.1 M NMe4Cl, log KMnHL in Table 5 ref 28
  log KHML: 4.27
[4]; Mn(II), 0.1 M NaClO4 ref 40
  log KHML: 4.20
  log KML: 11.64
[4]; Mn(II), 0.1 M NaClO4 ref 41
  log KHML: 4.51
  log KML: 11.12
[4]; pH 7.4, cMn = clig = 10^–5 M ref 28
  pMn: 6.37
[4]; pH 7.4, cMn = clig = 10^–5 M ref 40
  pMn: 6.60
[4]; pH 7.4, cMn = clig = 10^–5 M ref 41
  pMn: 6.59
[5]; 0.1 M NMe4Cl ref 28
  log KML: 21.84
  log KML(OH): -12.30
[6]; 0.1 M NMe4Cl ref 28
  log KML: 2.97

## O=C(O)CN1CCOCCOCCNCc2cccc(n2)C1 [L1]
[1]; I = 0.15 M NaCl, 25 °C ref 30
  log K1^H: 8.86
  log K2^H: 8.03
  log K3^H: 1.9
[2]; I = 0.15 M NaCl, 25 °C ref 30
  log KHML: 2.80
  log KML: 13.12
[3]; Zn(II) transmetalation ref 30
  k0: (4.1 ± 0.3) × 10^–3 s^–1
  k1: 1691 ± 41 M^–1 s^–1
[3]; Zn(II) ref 30
  dissociation half-life t1/2: 0.0467 h
[4]; Mn(II), I = 0.15 M NaCl, 25 °C ref 30
  log KML: 11.06
[4]; Mn(II), I = 0.15 M NaCl, 25 °C, log KMnHL in Table 5 ref 30
  log KHML: 3.82
[4]; pH 7.4, cMn = clig = 10^–5 M ref 30
  pMn: 6.95
[5]; I = 0.15 M NaCl, 25 °C ref 30
  log KHML: 2.67
  log KML: 15.86
  log KML(OH): -9.7
[6]; I = 0.15 M NaCl, 25 °C ref 30
  log KHML: 6.37
  log KML: 5.51

## O.O=C([O-])CN1CCNCc2cccc(n2)CN(CC(=O)[O-])CC1.[Mn+2] [Mn(3,6-PC2A)]
[7]; [11]
  Eox: +862 mV
[8]
  kex^298: 14.0 ± 2.5 10^7 s^–1
  ΔH^‡: 38.2 ± 3.9 kJ mol^–1
[9]
  r1p298: 2.72 mM^–1 s^–1

## O.O=C([O-])CN1CCNCCN(CC(=O)[O-])Cc2cccc(n2)C1.[Mn+2] [Mn(3,9-PC2A)]
[7]; [11]
  Eox: +838 mV
[8]
  kex^298: 12.6 ± 1.2 10^7 s^–1
  ΔH^‡: 37.5 ± 2.4 kJ mol^–1
[9]
  r1p298: 2.91 mM^–1 s^–1

## O.O.[Mn+2].c1cc2nc(c1)CNCCOCCOCCNC2 [Mn(15-pyN3O2)]
[7]
  Eox: 912 mV
[8]
  AO/ℏ: 38.6 10^6 rad s^–1
  ErH: 16.1 kJ mol^–1
  kex^298: 0.38 10^7 s^–1
  ΔH^‡: 35.3 kJ mol^–1
  ΔS^‡: –1.0 J mol^–1K^–1
  Δ^2: 6.6 10^18 s^–2
  τrH^298: 40.3 ps
  τv^298: 3.3 ps
[9]; 25 °C
  r1 (relaxivity): 4.48 mM^–1 s^–1
[9]; 37 °C
  r1 (relaxivity): 3.61 mM^–1 s^–1

## O=C(O)CN1CCNCc2cccc(n2)CNCC1 [PC1A]
[1]; 0.1 M NMe4Cl ref 20
  log K1^H: 10.47
  log K2^H: 8.71
  log K3^H: 2.79
[2]; 0.1 M NMe4Cl ref 20
  log KHML: 3.03
  log KML: 17.01
[3]; Zn(II) transmetalation ref 20
  k1: 2020 ± 40 M^–1 s^–1
  k2: (8.0 ± 0.3) × 10^7 M^–2 s^–1
[3]; Zn(II) ref 20
  dissociation half-life t1/2: 2.4 h
[4]; Mn(II), 0.1 M NMe4Cl ref 20
  log KML: 11.54
[4]; Mn(II), 0.1 M NMe4Cl, log KMnHL in Table 5 ref 20
  log KHML: 4.95
[4]; pH 7.4, cMn = clig = 10^–5 M ref 20
  pMn: 8.10
[5]; 0.1 M NMe4Cl ref 20
  log KHML: 2.09
  log KML: 18.62
[6]; 0.1 M NMe4Cl ref 20
  log KHML: 7.39
  log KML: 6.04

## O=C(O)CN1CCN(Cc2ccc(-c3ccccc3)cc2)CCN(CC(=O)O)Cc2cccc(n2)C1 [PC2A-BP]
[1]; I = 0.15 M NaCl, 25 °C ref 23
  log K1^H: 10.45
  log K2^H: 6.93
  log K3^H: 2.36
  log K4^H: 1.64
[2]; I = 0.15 M NaCl, 25 °C ref 23
  log KHML: 1.71
  log KML: 18.05
[4]; Mn(II), I = 0.15 M NaCl, 25 °C ref 23
  log KML: 14.86
[4]; pH 7.4, cMn = clig = 10^–5 M ref 23
  pMn: 8.35
[10]; Cu(II) transmetalation ref 23
  k1: 16.9 ± 0.2 M^–1 s^–1
[10]; calculated for pH 7.4, Cu(II) ref 23
  dissociation half-life t1/2: 286.2 h
[5]; I = 0.15 M NaCl, 25 °C ref 23
  log KHML: 1.04
  log KML: 22.30
[6]; I = 0.15 M NaCl, 25 °C ref 23
  log KML: 7.94

## Mn(EDTA)
[7]; [11]
  Eox: +769 mV
